Source: US9463247B2, “Branched alkyl and cycloalkyl terminated biodegradable lipids for the delivery of active agents” (ALNYLAM PHARMACEUTICALS, INC., priority 2011, dated 2016)

Tested on: Factor VII (FVII)
Experiment: In vivo determination of efficacy of lipid formulations: FVII knockdown in mice (Biophen FVII chromogenic assay)
Set-up: species or system mouse (C57Bl/6)
Conditions: FVII siRNA lipid formulation containing the cationic lipid; i.v. lateral tail vein; female C57Bl/6 mice; serum 24 hours later; dose resulting in a 50% reduction in plasma FVII levels compared to control animals
Method: Test formulations were prepared using the following in-line mixing method: […]
Individual and separate stock solutions are prepared—one containing lipid and the other siRNA. Lipid stock containing lipid A, DSPC, cholesterol and PEG lipid is prepared by solubilized in 90% ethanol. The remaining 10% is low pH citrate buffer. The concentration of the lipid stock is 4 mg/mL. The pH of this citrate buffer can range between pH 3-5, depending on the type of fusogenic lipid employed. The siRNA is also solubilized in citrate buffer at a concentration of 4 mg/mL. For small scale, 5 mL of each stock solution is prepared.
Stock solutions are completely clear and lipids must be completely solubilized before combining with siRNA. Therefore stock solutions may be heated to completely solubilize the lipids. The siRNAs used in the process may be unmodified oligonucleotides or modified and may be conjugated with lipophilic moieties such as cholesterol.
The individual stocks are combined by pumping each solution to a T-junction. A dual-head Watson-Marlow pump is used to simultaneously control the start and stop of the two streams. A 1.6 mm polypropylene tubing is further downsized to a 0.8 mm tubing in order to increase the linear flow rate. The polypropylene line (ID=0.8 mm) are attached to either side of a T-junction. The polypropylene T has a linear edge of 1.6 mm for a resultant volume of […]. Each of the large ends (1.6 mm) of polypropylene line is placed into test tubes containing either solubilized lipid stock or solubilized siRNA. After the T-junction a single tubing is placed where the combined stream will emit. The tubing is then extending into a container with 2× volume of PBS. The PBS is rapidly stirring. The flow rate for the pump is at a setting of 300 rpm or 110 mL/min. Ethanol is removed and exchanged for PBS by dialysis. The lipid formulations are then concentrated using centrifugation or diafiltration to an appropriate working concentration.
Test formulations are initially assessed for their FVII knockdown in female 7-9 week old, 15-25 g, female C57Bl/6 mice at 0.1, 0.3, 1.0 and 5.0 mg/kg with 3 mice per treatment group. All studies include animals receiving either phosphate-buffered saline (PBS, Control group) or a benchmark formulation. Formulations are diluted to the appropriate concentration in PBS immediately prior to testing. Mice are weighed and the appropriate dosing volumes calculated (10 μl/g body weight). Test and benchmark formulations as well as PBS (for Control animals) are administered intravenously via the lateral tail vein. Animals are anesthetised 24 hours later with an intraperitoneal injection of Ketamine/Xylazine and 500-700 μl of blood is collected by cardiac puncture into serum separator tubes (BD Microtainer). Blood is centrifuged at 2,000×g for 10 minutes at 15° C. and serum is collected and stored at −70° C. until analysis. Serum samples are thawed at 37° C. for 30 minutes, diluted in PBS and aliquoted into 96-well assay plates. Factor VII levels are assessed using a chromogenic assay (Biophen FVII kit, Hyphen BioMed) according to manufacturer's instructions and absorbance is measured in a microplate reader equipped with a 405 nm wavelength filter. Plasma FVII levels are quantified and ED50s (dose resulting in a 50% reduction in plasma FVII levels compared to control animals) calculated using a standard curve generated from a pooled sample of serum from control animals. Those formulations of interest showing high levels of FVII knockdown (ED50<<0.1 mg/kg) are re-tested in independent studies at a lower dose range to confirm potency and establish ED50 levels.

| SMILES | ED50 (Mouse FVII) [mg/kg] |
| --- | --- |
| CN(C)CCCC(=O)OC(CCCCCCCCC(=O)OC1CCCCC1)CCCCCCCCC(=O)OC1CCCCC1 | >0.30 |
| CC(OCCCCCCCCCC(CCCCCCCCCOC(=O)C1CCCCC1)OC(=O)CCCN(C)C)C1CCCCC1 (centres unmarked) | 0.032 |
| CCCCC(CCCC)OC(=O)CCCCCCCCC(CCCCCCCCC(=O)OC(CCCC)CCCC)OC(=O)CCCN(C)C | 0.010 |
| CN(C)CCCC(=O)OC(CCCCCCCCCOC(=O)C1CCCC1)CCCCCCCCCOC(=O)C1CCCC1 | >0.30 |
| CN(C)CCCC(=O)OC(CCCCCCCCCOC(=O)CCC1CCCC1)CCCCCCCCCOC(=O)CCC1CCCC1 | 0.023 |
| CN(C)CCCC(=O)OC(CCCCCCCCC(=O)OC1CCCC1)CCCCCCCCC(=O)OC1CCCC1 | >0.30 |
| CN(C)CCCC(=O)OC(CCCCCCCCC(=O)OCCCC1CCCC1)CCCCCCCCC(=O)OCCCC1CCCC1 | 0.12 |
| CN(C)CCCC(=O)OC(CCCCCC(=O)OC1CCCCC1)CCCCCC(=O)OC1CCCC1 (centres unmarked) | >0.30 |
| CN(C)CCCC(=O)OC(CCCCCC(=O)OC1CCCC1)CCCCCC(=O)OC1CCCC1 | >0.30 |
| CCCCC(C)C(=O)OCCCCCCCCCC(CCCCCCCCCOC(=O)C(C)CCCC)OC(=O)CCCN(C)C (centres unmarked) | >0.30 |
| CCCCC(CCCC)OC(=O)CCCCCC(CCCCCC(=O)OC(CCCC)CCCC)OC(=O)CCCN(C)C | >0.30 |
| CCCCCC(CCCC)OC(=O)CCCCCCCCC(CCCCCCCCC(=O)OC(CCCC)CCCCC)OC(=O)CCCN(C)C (centres unmarked) | 0.009 |
| CCCCCC(CC)C(=O)OCCCCCCCCCC(CCCCCCCCCOC(=O)C(CC)CCCCC)OC(=O)CCCN(C)C (centres unmarked) | 0.008 |
| CCCCCCOC(=O)CCCCCCCCCCCC(CCCCCCCCCCCC(=O)OCCCCCC)OC(=O)CCCN(C)C | 0.013 |
| CC(C)CC(CC(C)C)OC(=O)CCCCCCCCCCCC(CCCCCCCCCCCC(=O)OC(CC(C)C)CC(C)C)OC(=O)CCCN(C)C | 0.020 |
| CCCCC(CC)C(=O)OCCCCCCCCCC(CCCCCCCCCOC(=O)C(CC)CCCC)OC(=O)CCCN(C)C (centres unmarked) [drawing 149] | 0.005 |
| CCCCC(CC)C(=O)OCCCCCCCCCC(CCCCCCCCCOC(=O)C(CC)CCCC)OC(=O)CCCN(C)C (centres unmarked) [drawing 162] | 0.088 |
